Assay: xn = mol fraction of the nth substance listed
Conditions: Constant-volume piezometry

CCCCC [pentane] + CCCO
Conditions | mass density [kg/m3]
503.15 K, 5980 kPa, Fluid (supercritical or subcritical phases), x1 = 0.8 | 288.67
503.15 K, 6051 kPa, Fluid (supercritical or subcritical phases), x1 = 0.9 | 301.99
503.15 K, 6149 kPa, Fluid (supercritical or subcritical phases), x1 = 0.8 | 299.5
503.15 K, 6295 kPa, Fluid (supercritical or subcritical phases), x1 = 0.9 | 312.64
503.15 K, 6413 kPa, Liquid, x1 = 0.2 | 470.91
503.15 K, 6490 kPa, Fluid (supercritical or subcritical phases), x1 = 0.5 | 373.27
503.15 K, 6551 kPa, Fluid (supercritical or subcritical phases), x1 = 0.8 | 315.69
503.15 K, 6924 kPa, Fluid (supercritical or subcritical phases), x1 = 0.9 | 334.38
503.15 K, 7052 kPa, Fluid (supercritical or subcritical phases), x1 = 0.8 | 334.2
503.15 K, 7423 kPa, Fluid (supercritical or subcritical phases), x1 = 0.8 | 345.74
503.15 K, 7481 kPa, Fluid (supercritical or subcritical phases), x1 = 0.5 | 398.56
503.15 K, 7825 kPa, Fluid (supercritical or subcritical phases), x1 = 0.9 | 354.5
503.15 K, 8266 kPa, Fluid (supercritical or subcritical phases), x1 = 0.8 | 362.32
503.15 K, 8559 kPa, Fluid (supercritical or subcritical phases), x1 = 0.5 | 417.68
503.15 K, 10489 kPa, Fluid (supercritical or subcritical phases), x1 = 0.5 | 441.45
503.15 K, 10609 kPa, Liquid, x1 = 0.2 | 510.19
503.15 K, 11537 kPa, Fluid (supercritical or subcritical phases), x1 = 0.5 | 451.78
503.15 K, 12022 kPa, Fluid (supercritical or subcritical phases), x1 = 0.9 | 407.75
503.15 K, 12689 kPa, Fluid (supercritical or subcritical phases), x1 = 0.8 | 418.68
503.15 K, 14223 kPa, Fluid (supercritical or subcritical phases), x1 = 0.5 | 468.71
503.15 K, 18302 kPa, Liquid, x1 = 0.2 | 547.72
503.15 K, 21559 kPa, Fluid (supercritical or subcritical phases), x1 = 0.8 | 467.26
503.15 K, 26707 kPa, Fluid (supercritical or subcritical phases), x1 = 0.5 | 519.99
503.15 K, 30356 kPa, Fluid (supercritical or subcritical phases), x1 = 0.8 | 496.72
503.15 K, 30587 kPa, Liquid, x1 = 0.2 | 582.08
503.15 K, 37782 kPa, Liquid, x1 = 0.2 | 595.68
503.15 K, 41722 kPa, Fluid (supercritical or subcritical phases), x1 = 0.8 | 521.26
504.15 K, 4315 kPa, Liquid, x1 = 0.2 | 419.14
508.15 K, 4020 kPa, Gas, x1 = 0.2 | 114.44
508.15 K, 4961 kPa, Liquid, x1 = 0.2 | 419.05
510.15 K, 4548 kPa, Liquid, x1 = 0.2 | 383.7
511.15 K, 4773 kPa, Liquid, x1 = 0.2 | 391.53
513.15 K, 933 kPa, Gas, x1 = 0.5 | 15.53
513.15 K, 1283 kPa, Gas, x1 = 0.8 | 22.54
513.15 K, 1508 kPa, Gas, x1 = 0.2 | 24.94
513.15 K, 1686 kPa, Gas, x1 = 0.5 | 30
513.15 K, 1923 kPa, Gas, x1 = 0.8 | 36.71
513.15 K, 2226 kPa, Gas, x1 = 0.5 | 40.51
513.15 K, 2615 kPa, Gas, x1 = 0.5 | 51.12
513.15 K, 2796 kPa, Gas, x1 = 0.8 | 58.44
513.15 K, 2974 kPa, Gas, x1 = 0.2 | 53.03
513.15 K, 3284 kPa, Gas, x1 = 0.5 | 67.55
513.15 K, 3295 kPa, Gas, x1 = 0.8 | 73.83
513.15 K, 3462 kPa, Gas, x1 = 0.5 | 72.63
513.15 K, 3488 kPa, Gas, x1 = 0.9 | 83.42
513.15 K, 3816 kPa, Gas, x1 = 0.2 | 91.46
513.15 K, 3844 kPa, Gas, x1 = 0.5 | 88.95
513.15 K, 4033 kPa, Gas, x1 = 0.5 | 95.89
513.15 K, 4156 kPa, Fluid (supercritical or subcritical phases), x1 = 0.8 | 106.45
513.15 K, 4165 kPa, Gas, x1 = 0.2 | 114.41
513.15 K, 4349 kPa, Fluid (supercritical or subcritical phases), x1 = 0.9 | 123.41
513.15 K, 4538 kPa, Fluid (supercritical or subcritical phases), x1 = 0.9 | 134.18
513.15 K, 4567 kPa, Fluid (supercritical or subcritical phases), x1 = 0.5 | 121.95
513.15 K, 4703 kPa, Liquid, x1 = 0.2 | 350.76
513.15 K, 4837 kPa, Fluid (supercritical or subcritical phases), x1 = 0.5 | 144.18
513.15 K, 4850 kPa, Fluid (supercritical or subcritical phases), x1 = 0.8 | 140.37
513.15 K, 4865 kPa, Liquid, x1 = 0.2 | 378.83
513.15 K, 4965 kPa, Fluid (supercritical or subcritical phases), x1 = 0.9 | 164.03
513.15 K, 4968 kPa, Fluid (supercritical or subcritical phases), x1 = 0.5 | 154.56
513.15 K, 4968 kPa, Liquid, x1 = 0.2 | 383.64
513.15 K, 5032 kPa, Fluid (supercritical or subcritical phases), x1 = 0.8 | 156.12
513.15 K, 5068 kPa, Fluid (supercritical or subcritical phases), x1 = 0.2 | 391.49
513.15 K, 5068 kPa, Liquid, x1 = 0.2 | 391.49
513.15 K, 5086 kPa, Fluid (supercritical or subcritical phases), x1 = 0.5 | 165.22
513.15 K, 5197 kPa, Fluid (supercritical or subcritical phases), x1 = 0.8 | 169.87
513.15 K, 5255 kPa, Fluid (supercritical or subcritical phases), x1 = 0.5 | 182.94
513.15 K, 5265 kPa, Fluid (supercritical or subcritical phases), x1 = 0.8 | 176.11
513.15 K, 5295 kPa, Fluid (supercritical or subcritical phases), x1 = 0.9 | 189.54
513.15 K, 5344 kPa, Fluid (supercritical or subcritical phases), x1 = 0.8 | 180.91
513.15 K, 5373 kPa, Fluid (supercritical or subcritical phases), x1 = 0.5 | 200.49
513.15 K, 5432 kPa, Fluid (supercritical or subcritical phases), x1 = 0.5 | 210.33
513.15 K, 5454 kPa, Fluid (supercritical or subcritical phases), x1 = 0.9 | 202.47
513.15 K, 5473 kPa, Fluid (supercritical or subcritical phases), x1 = 0.8 | 193.25
513.15 K, 5506 kPa, Fluid (supercritical or subcritical phases), x1 = 0.5 | 224.16
513.15 K, 5598 kPa, Fluid (supercritical or subcritical phases), x1 = 0.5 | 241.62
513.15 K, 5618 kPa, Fluid (supercritical or subcritical phases), x1 = 0.5 | 250.82
513.15 K, 5669 kPa, Fluid (supercritical or subcritical phases), x1 = 0.9 | 220.79
513.15 K, 5677 kPa, Fluid (supercritical or subcritical phases), x1 = 0.5 | 259.87
513.15 K, 5710 kPa, Fluid (supercritical or subcritical phases), x1 = 0.8 | 213.96
513.15 K, 5746 kPa, Fluid (supercritical or subcritical phases), x1 = 0.5 | 270.69
513.15 K, 5776 kPa, Fluid (supercritical or subcritical phases), x1 = 0.8 | 219.73
513.15 K, 5792 kPa, Liquid, x1 = 0.2 | 418.94
513.15 K, 5837 kPa, Fluid (supercritical or subcritical phases), x1 = 0.9 | 233.18
513.15 K, 5858 kPa, Fluid (supercritical or subcritical phases), x1 = 0.5 | 282.52
513.15 K, 5880 kPa, Fluid (supercritical or subcritical phases), x1 = 0.9 | 236.64
513.15 K, 5929 kPa, Fluid (supercritical or subcritical phases), x1 = 0.9 | 241.05
513.15 K, 5974 kPa, Fluid (supercritical or subcritical phases), x1 = 0.9 | 244.36
513.15 K, 5983 kPa, Fluid (supercritical or subcritical phases), x1 = 0.8 | 234.82
513.15 K, 6090 kPa, Fluid (supercritical or subcritical phases), x1 = 0.5 | 298.82
513.15 K, 6119 kPa, Fluid (supercritical or subcritical phases), x1 = 0.8 | 245.46
513.15 K, 6286 kPa, Fluid (supercritical or subcritical phases), x1 = 0.8 | 258.7
513.15 K, 6470 kPa, Fluid (supercritical or subcritical phases), x1 = 0.5 | 320.16
513.15 K, 6531 kPa, Fluid (supercritical or subcritical phases), x1 = 0.8 | 272.67
513.15 K, 6531 kPa, Fluid (supercritical or subcritical phases), x1 = 0.9 | 282.15
513.15 K, 6559 kPa, Fluid (supercritical or subcritical phases), x1 = 0.5 | 325.44
513.15 K, 6787 kPa, Fluid (supercritical or subcritical phases), x1 = 0.8 | 288.53
513.15 K, 6884 kPa, Fluid (supercritical or subcritical phases), x1 = 0.9 | 301.84
513.15 K, 6962 kPa, Fluid (supercritical or subcritical phases), x1 = 0.5 | 344.73
513.15 K, 7033 kPa, Fluid (supercritical or subcritical phases), x1 = 0.8 | 299.35
513.15 K, 7191 kPa, Fluid (supercritical or subcritical phases), x1 = 0.9 | 312.49
513.15 K, 7508 kPa, Fluid (supercritical or subcritical phases), x1 = 0.8 | 315.53
513.15 K, 7785 kPa, Fluid (supercritical or subcritical phases), x1 = 0.5 | 373.08
513.15 K, 7943 kPa, Fluid (supercritical or subcritical phases), x1 = 0.9 | 334.21
513.15 K, 8099 kPa, Fluid (supercritical or subcritical phases), x1 = 0.8 | 334.03
513.15 K, 8570 kPa, Fluid (supercritical or subcritical phases), x1 = 0.8 | 345.56
513.15 K, 8766 kPa, Liquid, x1 = 0.2 | 470.65
513.15 K, 8986 kPa, Fluid (supercritical or subcritical phases), x1 = 0.5 | 398.35
513.15 K, 9031 kPa, Fluid (supercritical or subcritical phases), x1 = 0.9 | 354.32
513.15 K, 9551 kPa, Fluid (supercritical or subcritical phases), x1 = 0.8 | 362.13
513.15 K, 10333 kPa, Fluid (supercritical or subcritical phases), x1 = 0.5 | 417.46
513.15 K, 12509 kPa, Fluid (supercritical or subcritical phases), x1 = 0.5 | 441.21
513.15 K, 13550 kPa, Fluid (supercritical or subcritical phases), x1 = 0.2 | 509.9
513.15 K, 13550 kPa, Liquid, x1 = 0.2 | 509.9
513.15 K, 13634 kPa, Fluid (supercritical or subcritical phases), x1 = 0.5 | 451.54
513.15 K, 13786 kPa, Fluid (supercritical or subcritical phases), x1 = 0.9 | 407.53
513.15 K, 14551 kPa, Fluid (supercritical or subcritical phases), x1 = 0.8 | 418.46
513.15 K, 16655 kPa, Fluid (supercritical or subcritical phases), x1 = 0.5 | 468.45
513.15 K, 22117 kPa, Liquid, x1 = 0.2 | 547.38
513.15 K, 24001 kPa, Fluid (supercritical or subcritical phases), x1 = 0.8 | 467
513.15 K, 30101 kPa, Fluid (supercritical or subcritical phases), x1 = 0.5 | 519.68
513.15 K, 33469 kPa, Fluid (supercritical or subcritical phases), x1 = 0.8 | 496.43
513.15 K, 35193 kPa, Liquid, x1 = 0.2 | 581.71
513.15 K, 42801 kPa, Liquid, x1 = 0.2 | 595.3
514.15 K, 4473 kPa, Gas, x1 = 0.2 | 150.41
514.15 K, 4778 kPa, Liquid, x1 = 0.2 | 341.42
514.15 K, 4795 kPa, Liquid, x1 = 0.2 | 350.74
515.15 K, 4522 kPa, Gas, x1 = 0.2 | 150.4
515.15 K, 4645 kPa, Fluid (supercritical or subcritical phases), x1 = 0.2 | 175.68
515.15 K, 4818 kPa, Fluid (supercritical or subcritical phases), x1 = 0.2 | 318.9
516.15 K, 4838 kPa, Fluid (supercritical or subcritical phases), x1 = 0.2 | 272.45
516.15 K, 4852 kPa, Fluid (supercritical or subcritical phases), x1 = 0.2 | 290.64
516.15 K, 4872 kPa, Fluid (supercritical or subcritical phases), x1 = 0.2 | 306.93
516.15 K, 4877 kPa, Fluid (supercritical or subcritical phases), x1 = 0.2 | 311.17
516.15 K, 4909 kPa, Fluid (supercritical or subcritical phases), x1 = 0.2 | 318.89
517.15 K, 4912 kPa, Fluid (supercritical or subcritical phases), x1 = 0.2 | 272.44
517.15 K, 4958 kPa, Fluid (supercritical or subcritical phases), x1 = 0.2 | 306.92

Liquid, x1 = 0.2
Conditions | mass density [kg/m3]
508.65 K | 391.58
509.65 K | 383.71
510.35 K | 378.89
512.85 K | 350.77
513.45 K | 344.22
513.65 K | 341.43
514.95 K | 318.91
515.15 K | 311.18
515.55 K | 306.94
515.95 K | 290.64
516.15 K | 272.45
